Test system: spontaneously hypertensive rats (SHR)
Assay: Antihypertensive effect, oral administration to spontaneously hypertensive rats (mean blood pressure and heart rate)
Format: in vivo, rat
Conditions: SHR, p.o.; for Changes in average blood pressures after administration: Table 3; for Change in blood pressure after 3 hrs. from administration: Table 1
Experimental: Antihypertensive effect was determined by oral administration of the test compound to spontaneously hypertensive rats (hereinafter referred to as SHR).
These SHR were anesthetized with ether and chronically embedded with a cannula for determination of blood pressure so that one end of the said cannula may be placed in abdominal aorta and the other end thereof may be projected out of dorsal neck. When rats regained their body weight before operation in more than 1 week from operation, the test compound was given. Determination was made by measuring a mean blood pressure and a heart rate under unanesthetized and unrestrained conditions with the cannula connected to an electronic recording system. The test compound was suspended in a 1% tragacanth gum solution to make up a concentration so as to be a volume of 5 ml./kg. and then orally given.

Row | Compound | Changes in average blood pressures after administration (3 mg./kg., 1 hr.) | Changes in average blood pressures after administration (3 mg./kg., 3 hrs.) | Changes in average blood pressures after administration (3 mg./kg., 6 hrs.) | Changes in average blood pressures after administration (3 mg./kg., 24 hrs.) | Change in blood pressure after 3 hrs. from administration (10 mg./kg., 3 hrs.) | further results
1 | 2-{4-[3-(5-Chlorothiophen-2-yl)-acryloyl]-piperazin-1-yl}-4-amino-6,7-dimethoxyquinazoline [compound 42] | -6 mmHg | -6 mmHg | -7 mmHg | -2 mmHg |  | 
2 | COc1cc2nc(N3CCN(C(=O)C=Cc4ccccc4C)CC3)nc(N)c2cc1OC [compound 2, 2-[4-(2-Methylcinnamoyl)-piperazin-1-yl]-4-amino-6,7-dimethoxyquinazoline] |  |  |  |  | -43 mmHg | 
3 | COc1cc2nc(N3CCN(C(=O)C=Cc4cccc(C)c4)CC3)nc(N)c2cc1OC [compound 3, 2-[4-(3-Methylcinnamoyl)-piperazin-1-yl]-4-amino-6,7-dimethoxyquinazoline] |  |  |  |  | -35 mmHg | 
4 | COc1cc2nc(N3CCN(C(=O)C=Cc4ccc(C)cc4)CC3)nc(N)c2cc1OC [compound 4, 2-[4-(4-Methylcinnamoyl)-piperazin-1-yl]-4-amino-6,7-dimethoxyquinazoline] |  |  |  |  | -18 mmHg | 
5 | COc1cccc(C=CC(=O)N2CCN(c3nc(N)c4cc(OC)c(OC)cc4n3)CC2)c1 [compound 7, 2-[4-(3-Methoxycinnamoyl)-piperazin-1-yl]-4-amino-6,7-dimethoxyquinazoline] |  |  |  |  | -18 mmHg | 
6 | COc1cc(C=CC(=O)N2CCN(c3nc(N)c4cc(OC)c(OC)cc4n3)CC2)cc(OC)c1 [compound 13, 2-[4-(3,5-Dimethoxycinnamoyl)-piperazin-1-yl]-4-amino-6,7-dimethoxyquinazoline] |  |  |  |  | -12 mmHg | 
7 | COc1cc2nc(N3CCN(C(=O)C=Cc4ccc(OC)c(OC)c4OC)CC3)nc(N)c2cc1OC [compound 14, 2-[4-(2,3,4-Trimethoxycinnamoyl)-piperazin-1-yl]-4-amino-6,7-dimethoxyquinazoline] |  |  |  |  | -22 mmHg | 
8 | C=CCOc1ccc(C=CC(=O)N2CCN(c3nc(N)c4cc(OC)c(OC)cc4n3)CC2)cc1 [compound 17, 2-[4-(4-Allyloxycinnamoyl)-piperazin-1-yl]-4-amino-6,7-dimethoxyquinazoline] |  |  |  |  | -18 mmHg | 
9 | COc1cc2nc(N3CCN(C(=O)C=Cc4ccc(Br)cc4)CC3)nc(N)c2cc1OC [compound 21, 2-[4-(4-Bromocinnamoyl)-piperazin-1-yl]-4-amino-6,7-dimethoxyquinazoline] |  |  |  |  | -22 mmHg | 
10 | COc1cc2nc(N3CCN(C(=O)C=Cc4cccc(C(F)(F)F)c4)CC3)nc(N)c2cc1OC [compound 22, 2-[4-(3-Trifluoromethylcinnamoyl)-piperazin-1-yl]-4-amino-6,7-dimethoxyquinazoline] |  |  |  |  | -10 mmHg | 
11 | COc1cc2nc(N3CCN(C(=O)C=Cc4ccc(N(C)C)cc4)CC3)nc(N)c2cc1OC [compound 23, 2-[4-(4-Dimethylaminocinnamoyl)-piperazin-1-yl]-4-amino-6,7-dimethoxyquinazoline] |  |  |  |  | -15 mmHg | 
12 | COc1cc2nc(N3CCN(C(=O)C=Cc4ccoc4)CC3)nc(N)c2cc1OC [compound 29, 2-{4-[3-(Furan-3-yl)-acryloyl]-piperazin-1-yl]-4-amino-6,7-dimethoxyquinazoline] |  |  |  |  |  | Changes in average blood pressures after administration (1 mg./kg., 1 hr.): -25 mmHg; Changes in average blood pressures after administration (1 mg./kg., 3 hrs.): -28 mmHg; Changes in average blood pressures after administration (1 mg./kg., 6 hrs.): -37 mmHg; Changes in average blood pressures after administration (1 mg./kg., 24 hrs.): -17 mmHg
13 | COc1cc2nc(N3CCN(C(=O)C=Cc4ccc(C)o4)CC3)nc(N)c2cc1OC [compound 30, 2-{4-[3-(5-Methylfuran-2-yl)-acryloyl]-piperazin-1-yl}-4-amino-6,7-dimethoxyquinazoline] |  |  |  |  |  | Changes in average blood pressures after administration (1 mg./kg., 1 hr.): -13 mmHg; Changes in average blood pressures after administration (1 mg./kg., 3 hrs.): -12 mmHg; Changes in average blood pressures after administration (1 mg./kg., 6 hrs.): -15 mmHg; Changes in average blood pressures after administration (1 mg./kg., 24 hrs.): 0 mmHg
14 | COc1cc2nc(N3CCN(C(=O)C(C)=Cc4ccco4)CC3)nc(N)c2cc1OC [compound 31, 2-{4-[2-Methyl-3-(furan-2-yl)-acryloyl]-piperazin-1-yl}-4-amino-6,7-dimethoxyquinazoline] |  |  |  |  |  | Changes in average blood pressures after administration (1 mg./kg., 1 hr.): -22 mmHg; Changes in average blood pressures after administration (1 mg./kg., 3 hrs.): -23 mmHg; Changes in average blood pressures after administration (1 mg./kg., 6 hrs.): -24 mmHg; Changes in average blood pressures after administration (1 mg./kg., 24 hrs.): -6 mmHg
15 | COc1cc2nc(N3CCN(C(=O)C=Cc4ccc([N+](=O)[O-])o4)CC3)nc(N)c2cc1OC [compound 33, 2-{4-[3-(5-Nitrofuran-2-yl)-acryloyl]-piperazin-1-yl}-4-amino-6,7-dimethoxyquinazoline] | -15 mmHg | -20 mmHg | -11 mmHg | 3 mmHg |  | 
16 | COc1cc2nc(N3CCN(C(=O)C=Cc4ccc(Cl)o4)CC3)nc(N)c2cc1OC [compound 34, 2-{4-[3-(5-chlorofuran-2-yl)-acryloyl]-piperazin-1-yl}-4-amino-6,7-dimethoxyquinazoline] | -20 mmHg | -26 mmHg | -28 mmHg | 0 mmHg |  | 
17 | COc1cc2nc(N3CCN(C(=O)C=Cc4cccs4)CC3)nc(N)c2cc1OC [compound 35, 2-{4-[3-(Thiophen-2-yl)-acryloyl]-piperazin-1-yl}-4-amino-6,7-dimethoxyquinazoline] | -45 mmHg | -27 mmHg | -42 mmHg | -2 mmHg |  | Changes in average blood pressures after administration (1 mg./kg., 1 hr.): -27 mmHg; Changes in average blood pressures after administration (1 mg./kg., 3 hrs.): -25 mmHg; Changes in average blood pressures after administration (1 mg./kg., 6 hrs.): -25 mmHg; Changes in average blood pressures after administration (1 mg./kg., 24 hrs.): 0 mmHg
18 | COc1cc2nc(N3CCN(C(=O)C=Cc4ccsc4)CC3)nc(N)c2cc1OC [compound 36, 2-{4-[3-(Thiophen-3-yl)-acryloyl]-piperazin-1-yl}-4-amino-6,7-dimethoxyquinazoline] | -47 mmHg | -30 mmHg | -35 mmHg | 0 mmHg |  | Changes in average blood pressures after administration (1 mg./kg., 1 hr.): -18 mmHg; Changes in average blood pressures after administration (1 mg./kg., 3 hrs.): -20 mmHg; Changes in average blood pressures after administration (1 mg./kg., 6 hrs.): -27 mmHg; Changes in average blood pressures after administration (1 mg./kg., 24 hrs.): 3 mmHg
19 | COc1cc2nc(N3CCN(C(=O)C=Cc4sccc4C)CC3)nc(N)c2cc1OC [compound 37, 2-{4-[3-(3-Methylthiophen-2-yl)-acryloyl]-piperazin-1-yl}-4-amino-6,7-dimethoxyquinazoline] | -18 mmHg | -18 mmHg | -18 mmHg | 5 mmHg |  | 
20 | COc1cc2nc(N3CCN(C(=O)C=Cc4ccc(C)s4)CC3)nc(N)c2cc1OC [compound 38, 2-{4-[3-(5-Methylthiophen-2-yl)-acryloyl]-piperazin-1-yl}-4-amino-6,7-dimethoxyquinazoline] | -18 mmHg | -27 mmHg | -18 mmHg | -2 mmHg |  | 
21 | COc1cc2nc(N3CCN(C(=O)C(C)=Cc4cccs4)CC3)nc(N)c2cc1OC [compound 39, 2-{4-[2-Methyl-3-(thiophen-2-yl)-acryloyl]-piperazin-1-yl}-4-amino-6,7-dimethoxyquinazoline] | -65 mmHg | -27 mmHg | -35 mmHg | -15 mmHg |  | Changes in average blood pressures after administration (1 mg./kg., 1 hr.): -18 mmHg; Changes in average blood pressures after administration (1 mg./kg., 3 hrs.): -12 mmHg; Changes in average blood pressures after administration (1 mg./kg., 6 hrs.): -13 mmHg; Changes in average blood pressures after administration (1 mg./kg., 24 hrs.): 3 mmHg
22 | COc1cc2nc(N3CCN(C(=O)C=Cc4ccccn4)CC3)nc(N)c2cc1OC [compound 43, 2-{4-[3-(Pyridin-2-yl)-acryloyl]-piperazin-1-yl}-4-amino-6,7-dimethoxyquinazoline] | -40 mmHg | -22 mmHg | -30 mmHg | 8 mmHg |  | Changes in average blood pressures after administration (10 mg./kg., 1 hr.): -23 mmHg; Changes in average blood pressures after administration (10 mg./kg., 3 hrs.): -22 mmHg; Changes in average blood pressures after administration (10 mg./kg., 6 hrs.): -18 mmHg; Changes in average blood pressures after administration (10 mg./kg., 24 hrs.): -3 mmHg
23 | COc1cc2nc(N3CCN(C(=O)C=Cc4cccnc4)CC3)nc(N)c2cc1OC [compound 44, 2-{4-[3-(Pyridin-3-yl)-acryloyl]-piperazin-1-yl}-4-amino-6,7-dimethoxyquinazoline] | -28 mmHg | -15 mmHg | -25 mmHg | 3 mmHg |  | 

Source: patent publication US4189484A, “Antihypertensive quinazoline derivatives” (priority 1977, dated 1980)
